Tests used:
[1] = target: Glyceraldehyde-3-phosphate dehydrogenase (Oryctolagus cuniculus, UniProt P46406); test: Binding affinity to GAPDH in rabbit muscle
[2] = target: Glyceraldehyde-3-phosphate dehydrogenase (Homo sapiens, UniProt P04406); test: Binding affinity to GAPDH in human erythrocytes; type: cell-based
Glyceraldehyde-3-phosphate dehydrogenase (Homo sapiens, UniProt P04406), sequence (P04406 whole entry): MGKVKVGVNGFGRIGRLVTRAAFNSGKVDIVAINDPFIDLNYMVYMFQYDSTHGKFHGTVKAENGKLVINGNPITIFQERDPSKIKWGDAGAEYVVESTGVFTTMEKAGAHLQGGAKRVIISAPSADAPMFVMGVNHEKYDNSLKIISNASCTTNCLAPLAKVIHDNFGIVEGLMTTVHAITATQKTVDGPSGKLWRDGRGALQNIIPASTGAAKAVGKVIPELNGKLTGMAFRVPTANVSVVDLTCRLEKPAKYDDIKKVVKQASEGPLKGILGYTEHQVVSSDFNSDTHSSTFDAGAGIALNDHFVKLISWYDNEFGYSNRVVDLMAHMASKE

Glyceraldehyde-3-phosphate dehydrogenase (Oryctolagus cuniculus, UniProt P46406), sequence (P46406 whole entry): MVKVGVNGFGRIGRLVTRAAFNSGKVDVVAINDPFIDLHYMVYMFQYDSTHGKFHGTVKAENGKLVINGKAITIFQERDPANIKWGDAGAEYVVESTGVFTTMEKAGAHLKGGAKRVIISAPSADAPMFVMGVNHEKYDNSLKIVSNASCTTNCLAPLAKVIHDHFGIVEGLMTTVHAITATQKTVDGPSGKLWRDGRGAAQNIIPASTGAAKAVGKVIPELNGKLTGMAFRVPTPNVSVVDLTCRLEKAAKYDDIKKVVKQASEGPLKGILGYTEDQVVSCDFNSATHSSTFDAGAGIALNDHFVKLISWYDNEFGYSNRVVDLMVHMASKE

SMILES	IC50 [1]	Kd [2]
C=CC(C)(C)c1[nH]c2ccccc2c1C1=C(O)C(O)=C(c2c[nH]c3c(CC=C(C)C)cccc23)C(=O)C1=O	15 µM	7.2 µM
CC(C)=CCc1cccc2c(C3=C(O)C(=O)C(c4c(C)[nH]c5ccc(NC(=O)CCCCCNC(=O)CCCCC6SCC7NC(=O)NC76)cc45)=C(O)C3=O)c[nH]c12 (stereo not drawn)		7.5 µM
